From patent US10081624B2, “Heterocyclic compound” (Takeda Pharmaceutical Company Limited, priority 2014, dated 2018)

What was measured:
[1] = target: T1, HDAC6 enzyme (Homo sapiens, UniProt Q9UBN7); assay: HDAC6 enzyme inhibitory assay (HDAC-Glo I/II Assay kit); assay type: biochemical; settings: 1 μM test compound; for inhibition at 1 µM: read-out: HDAC6 inhibitory rate (%) (1 μM)
T1 construct: prepared by transducing full length HDAC1 and HDAC6 genes into Sf-9 insect cells; GST; purchased SignalChem; host or cells: Sf-9 insect cells
T1 sequence (Q9UBN7 1-1215): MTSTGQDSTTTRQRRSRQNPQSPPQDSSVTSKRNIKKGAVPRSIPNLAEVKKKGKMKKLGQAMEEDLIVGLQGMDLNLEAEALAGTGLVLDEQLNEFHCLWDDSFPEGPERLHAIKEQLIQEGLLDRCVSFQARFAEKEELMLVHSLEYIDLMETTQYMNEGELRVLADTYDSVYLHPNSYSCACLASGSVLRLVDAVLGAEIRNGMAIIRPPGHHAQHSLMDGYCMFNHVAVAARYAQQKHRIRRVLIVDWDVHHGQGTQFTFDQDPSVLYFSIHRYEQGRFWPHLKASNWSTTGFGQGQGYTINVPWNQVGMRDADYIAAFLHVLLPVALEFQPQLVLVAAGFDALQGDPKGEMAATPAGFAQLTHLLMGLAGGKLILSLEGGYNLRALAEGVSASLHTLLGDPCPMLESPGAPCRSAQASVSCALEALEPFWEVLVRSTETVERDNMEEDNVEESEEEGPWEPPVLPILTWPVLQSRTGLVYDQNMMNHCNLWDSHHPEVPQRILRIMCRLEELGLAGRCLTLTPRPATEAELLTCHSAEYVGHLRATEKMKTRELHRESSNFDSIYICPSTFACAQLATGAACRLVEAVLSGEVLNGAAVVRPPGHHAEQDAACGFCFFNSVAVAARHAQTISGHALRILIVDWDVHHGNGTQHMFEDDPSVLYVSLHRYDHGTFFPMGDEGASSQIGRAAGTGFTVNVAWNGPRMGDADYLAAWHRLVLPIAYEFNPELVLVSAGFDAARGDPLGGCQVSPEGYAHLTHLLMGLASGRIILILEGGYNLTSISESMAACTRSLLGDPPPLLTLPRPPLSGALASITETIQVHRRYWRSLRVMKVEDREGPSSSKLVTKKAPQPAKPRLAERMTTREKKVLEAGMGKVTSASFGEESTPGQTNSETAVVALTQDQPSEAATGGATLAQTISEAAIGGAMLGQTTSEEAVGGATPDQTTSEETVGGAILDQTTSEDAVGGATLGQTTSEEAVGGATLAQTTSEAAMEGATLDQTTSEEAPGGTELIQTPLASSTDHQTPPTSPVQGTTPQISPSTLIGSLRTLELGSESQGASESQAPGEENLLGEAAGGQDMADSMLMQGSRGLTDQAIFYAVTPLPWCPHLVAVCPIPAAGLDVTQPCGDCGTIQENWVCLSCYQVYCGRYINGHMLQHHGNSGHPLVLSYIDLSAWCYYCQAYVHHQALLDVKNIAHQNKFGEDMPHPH
Procedure, shortened: (§1)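 Full-length GST-purified HDAC1 or HDAC6 (Sf-9 expressed) preincubated 60 min at room temperature with compound in Tris-HCl pH 7.5 buffer with glutathione and Tween-20. HDAC-Glo substrate-developer added, 20 min at room temperature, then luminescence read; inhibition relative to no-enzyme wells as 100%.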

[2] = target: T2, HDAC1 enzyme (Homo sapiens, UniProt Q13547); assay: HDAC1 enzyme inhibitory assay (HDAC-Glo I/II Assay kit); assay type: biochemical; settings: 1 μM test compound; for inhibition at 1 µM: read-out: HDAC1 inhibitory rate (%) (1 μM)
T2 construct: prepared by transducing full length HDAC1 and HDAC6 genes into Sf-9 insect cells; GST; purchased SignalChem; host or cells: Sf-9 insect cells
T2 sequence (Q13547 whole entry): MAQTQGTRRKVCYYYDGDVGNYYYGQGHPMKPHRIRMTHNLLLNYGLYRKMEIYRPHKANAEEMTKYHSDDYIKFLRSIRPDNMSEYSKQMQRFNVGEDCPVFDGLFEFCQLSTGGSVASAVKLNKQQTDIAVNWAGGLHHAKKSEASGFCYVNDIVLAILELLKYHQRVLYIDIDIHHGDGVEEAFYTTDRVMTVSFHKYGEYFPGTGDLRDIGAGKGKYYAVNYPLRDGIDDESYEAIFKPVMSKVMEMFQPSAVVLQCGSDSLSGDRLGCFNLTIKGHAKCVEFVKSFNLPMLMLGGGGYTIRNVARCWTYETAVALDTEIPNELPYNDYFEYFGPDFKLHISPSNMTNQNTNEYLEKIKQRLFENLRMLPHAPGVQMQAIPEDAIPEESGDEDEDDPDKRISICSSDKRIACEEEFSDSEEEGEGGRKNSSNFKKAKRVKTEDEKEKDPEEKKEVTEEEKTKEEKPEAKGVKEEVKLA
Procedure, shortened: as §1

SMILES	inhibition at 1 µM [1] [%]	inhibition at 1 µM [2] [%]	HDAC6 inhibitory rate (%) (1 μM) [1]	HDAC1 inhibitory rate (%) (1 μM) ([2]; 1 µM)
Cn1nc2ccccc2c1C(=O)N1CCOCC1CNC(=O)c1ccc(-c2noc(C(F)(F)F)n2)s1 (stereo not shown) [Example 251, N-((4-((2-methyl-2H-indazol-3-yl)carbonyl)morpholin-3-yl)methyl)-5-(5-(trifluoromethyl)-1,2,4-oxadiazol-3-yl)thiophene-2-carboxamide]	96	36		
Cc1cc(-c2noc(C(F)(F)F)n2)ccc1C(=O)NCC1COCCN1C(=O)c1ccccc1 (stereo not shown) [Example 178, N-((4-benzoylmorpholin-3-yl)methyl)-2-methyl-4-(5-(trifluoromethyl)-1,2,4-oxadiazol-3-yl)benzamide]	24	3		
O=C(NC[C@H]1COCCN1C(=O)Cn1cnccc1=O)c1ccc(-c2noc(C(F)(F)F)n2)cc1 [Example 83, N-(((3S)-4-((6-oxopyrimidin-1(6H)-yl)acetyl)morpholin-3-yl)methyl)-4-(5-(trifluoromethyl)-1,2,4-oxadiazol-3-yl)benzamide]	15	4		
O=C(NC[C@H]1COCCN1C(=O)C1(c2ccccc2)CC1)c1ccc(-c2noc(C(F)(F)F)n2)cc1 [Example 56, N-(((3S)-4-((1-phenylcyclopropyl)carbonyl)morpholin-3-yl)methyl)-4-(5-(trifluoromethyl)-1,2,4-oxadiazol-3-yl)benzamide]	97	16		
Cc1oc2ccccc2c1C(=O)N1CCOC[C@@H]1CNC(=O)c1ccc(-c2noc(C(F)(F)F)n2)cc1 [Example 308, N-(((3S)-4-((2-methyl-1-benzofuran-3-yl)carbonyl)morpholin-3-yl)methyl)-4-(5-(trifluoromethyl)-1,2,4-oxadiazol-3-yl)benzamide]	100	46		
O=C(NCC1COCCN1C(=O)c1ccccc1N1CCOCC1)c1ccc(-c2noc(C(F)(F)F)n2)cc1 (stereo in doubt) [Example 118, N-(((3R)-4-(2-(morpholin-4-yl)benzoyl)morpholin-3-yl)methyl)-4-(5-(trifluoromethyl)-1,2,4-oxadiazol-3-yl)benzamide]	97	17		
Cn1nc2c(c1C(=O)N1CCOCC1CNC(=O)c1ccc(-c3noc(C(F)(F)F)n3)cc1)CCCC2 (stereo in doubt) [Example 93, N-(((3S)-4-((2-methyl-4,5,6,7-tetrahydro-2H-indazol-3-yl)carbonyl)morpholin-3-yl)methyl)-4-(5-(trifluoromethyl)-1,2,4-oxadiazol-3-yl)benzamide]	95	21		
O=C(NC[C@H]1COCCN1C(=O)N1CCCC1c1cccnc1)c1ccc(-c2noc(C(F)(F)F)n2)cc1 (stereo partly drawn) [Example 292, N-(((3S)-4-((2-(pyridin-3-yl)pyrrolidin-1-yl)carbonyl)morpholin-3-yl)methyl)-4-(5-(trifluoromethyl)-1,2,4-oxadiazol-3-yl)benzamide]	76	2		
Cc1oncc1C(=O)N1CCOC[C@@H]1CNC(=O)c1ccc(-c2noc(C(F)(F)F)n2)s1 [Example 259, N-(((3S)-4-((5-methyl-1,2-oxazol-4-yl)carbonyl)morpholin-3-yl)methyl)-5-(5-(trifluoromethyl)-1,2,4-oxadiazol-3-yl)thiophene-2-carboxamide]	100	25		
O=C(NCC1COCCN1C(=O)c1ccnc(C2CC2)c1)c1ccc(-c2noc(C(F)(F)F)n2)cc1 (stereo not shown) [Example 34, N-((4-(2-cyclopropylisonicotinoyl)morpholin-3-yl)methyl)-4-(5-(trifluoromethyl)-1,2,4-oxadiazol-3-yl)benzamide]	98	18		
O=C(NC[C@H]1COCCN1C(=O)N1CC2C(C1)C2(F)F)c1ccc(-c2noc(C(F)(F)F)n2)cc1 (stereo partly drawn) [Example 309, N-(((3S)-4-((6,6-difluoro-3-azabicyclo[3.1.0]hex-3-yl)carbonyl)morpholin-3-yl)methyl)-4-(5-(trifluoromethyl)-1,2,4-oxadiazol-3-yl)benzamide]	96	4		
O=C(NCC1COCCN1C(=O)c1ccncc1)c1ccc(-c2noc(C(F)(F)F)n2)cc1 (stereo not shown) [Example 14, N-((4-isonicotinoylmorpholin-3-yl)methyl)-4-(5-(trifluoromethyl)-1,2,4-oxadiazol-3-yl)benzamide]	98	20		
Cc1cccc(C(=O)N2CCOCC2CNC(=O)c2ccc(-c3noc(C(F)(F)F)n3)cc2)c1 (stereo not shown) [Example 10, N-((4-(3-methylbenzoyl)morpholin-3-yl)methyl)-4-(5-(trifluoromethyl)-1,2,4-oxadiazol-3-yl)benzamide]	104	18		
O=C(NC[C@H]1COCCN1C(=O)c1ccccc1N1CCOCC1)c1ccc(-c2noc(C(F)(F)F)n2)cc1 [Example 46, N-(((3S)-4-(2-(morpholin-4-yl)benzoyl)morpholin-3-yl)methyl)-4-(5-(trifluoromethyl)-1,2,4-oxadiazol-3-yl)benzamide]			95	12
O=C(NC[C@H]1COCCN1C(=O)N1CCC(CO)C1)c1ccc(-c2noc(C(F)(F)F)n2)cc1 (stereo partly drawn) [Example 298, N-(((3S)-4-((3-(hydroxymethyl)pyrrolidin-1-yl)carbonyl)morpholin-3-yl)methyl)-4-(5-(trifluoromethyl)-1,2,4-oxadiazol-3-yl)benzamide]	88	3		
O=C(NCC1COCCN1C(=O)CCc1ccccc1)c1ccc(-c2noc(C(F)(F)F)n2)cc1 (stereo not shown) [Example 22, N-((4-(3-phenylpropanoyl)morpholin-3-yl)methyl)-4-(5-(trifluoromethyl)-1,2,4-oxadiazol-3-yl)benzamide]	100	23		
COC(=O)c1cccc(C(=O)N2CCOC[C@@H]2CNC(=O)c2ccc(-c3noc(C(F)(F)F)n3)cc2)c1 [Example 268, methyl 3-(((3S)-3-(((4-(5-(trifluoromethyl)-1,2,4-oxadiazol-3-yl)benzoyl)amino)methyl)morpholin-4-yl)carbonyl)benzoate]	96	15		
O=C(NC[C@H]1COCCN1C(=O)c1ccno1)c1ccc(-c2noc(C(F)(F)F)n2)cc1 [Example 61, N-(((3S)-4-(1,2-oxazol-5-ylcarbonyl)morpholin-3-yl)methyl)-4-(5-(trrfluoromethyl)-1,2,4-oxadiazol-3-yl)benzamide]	97	10		
COc1cccc(C(=O)N2CCOC[C@@H]2CNC(=O)c2ccc(-c3noc(C(F)(F)F)n3)cc2)c1 [Example 42, N-(((3S)-4-(3-methoxybenzoyl)morpholin-3-yl)methyl)-4-(5-(trifluoromethyl)-1,2,4-oxadiazol-3-yl)benzamide]		16	101	
O=C(NC[C@H]1COCCN1C(=O)N1CCCC(CO)C1)c1ccc(-c2noc(C(F)(F)F)n2)cc1 (stereo partly drawn) [Example 276, N-(((3S)-4-((3-(hydroxymethyl)piperidin-1-yl)carbonyl)morpholin-3-yl)methyl)-4-(5-(trifluoromethyl)-1,2,4-oxadiazol-3-yl)benzamide]	89	9		
